Reference: US8377943B2, “2,4-diaminopyrimidine derivates as PTK2-inhibitors for the treatment of abnormal cell growth” (Boehringer Ingelheim International GmbH, priority 2008, dated 2013)

Legend:
[1] = molecular target: T1, PTK2-phosphorylation at tyrosine 397 (pY397) (Homo sapiens, UniProt Q05397); assay: Phospho-PTK2 (pY397) Assay in PC-3 cells; type: cell-based; conditions: PC-3 prostate carcinoma cells, 2 h incubation; read-out: PC3pPTK2 Y397 EC50
T1 construct: endogenous in cells; host or cells: PC-3 (ATCC CRL-1435)
Method: This cellular test is used to determine the influence of PTK2-inhibitors on the state of the PTK2-phosphorylation at tyrosine 397 (pY397).
PC-3 cells (prostate carcinoma, ATCC CRL-1435) are grown in cell culture flasks (175 cm^2) with F12 Kaighn's Medium (Gibco, No.: 21127) with the addition of 10% foetal calf serum (Invitrogen, No.: 16000-044). The cultures are incubated in the incubator at 37° C. and 5% CO2 and run twice a week.
For the test, 2×10^4 cells pro well/[…] are plated out in 96-well microtitre plates (Costar, No.: 3598) and incubated overnight in the incubator at 37° C. and 5% CO2. The test compounds (10 μL from serial dilution) are added the next day. The concentration of the test compounds usually covers a range of 50 μM and 0.8 nM. The test compounds (stock solution: 10 mM in 100% DMSO) are diluted in medium/medium 10% DMSO such that the final concentration is 1% DMSO. The cells are then incubated in the incubator at 37° C. and 5% CO2 for 2 h. Then the culture supernatant is removed and the cells are fixed with 150 μL 4% formaldehyde in D-PBS for 20 min at RT. The cell lawn is washed five times with 200 μL 0.1% Triton X-100 in D-PBS for 5 min in each case and then incubated for 90 min with blocking buffer (5% skimmed milk powder (Maresi Fixmilch) in TBST (25 mM Tris/HCl, pH 8.0, 150 mM NaCl, 0.05% Tween 20). The blocking buffer is replaced by 50 μL of the first antibody anti-phospho PTK2 [pY397] rabbit monoclonal (Invitrogen/Biosource, No.: 44-625G), which is diluted 1:200 in blocking buffer. For control purposes, alternatively a PTK2 [total] antibody (clone 4.47 mouse monoclonal, Upstate, No.: 05-537), diluted 1:400 in blocking buffer is used. This incubation is carried out at 4° C. overnight. Then the cell lawn is washed five times with 100 μL of 0.1% Tween in D-PBS for 5 min in each case and 50 μL/well of second antibody are added. In order to detect bound phospho-PTK2 [pY397] antibody a goat-anti-rabbit antibody is used which is coupled with horseradish peroxidase (Dako, No.: P0448; 1:500 dilution in blocking buffer). In order to detect bound PTK2 [total]-antibodies a rabbit-anti-mouse antibody is used, which is also coupled with horseradish peroxidase (Dako, No.: PO161; 1:1000 dilution in blocking buffer). This incubation is carried out for 1 h at RT with gentle shaking. The cell lawn is then again washed five times with 100 μL of 0.1% Tween in D-PBS for 5 min in each case. […] The EC50 values are determined from concentration-activity analyses by iterative calculation with the aid of a sigmoidal curve analysis algorithm (FIFTY, based on GraphPAD Prism Version 3.03) with a variable Hill coefficient.

[2] = molecular target: T2, PTK2 (Homo sapiens, UniProt Q05397); assay: PTK2 Enzyme Test (DELFIA assay, poly-Glu-Tyr substrate); type: biochemical; conditions: active PTK2 enzyme, 50 μM ATP in ATP Mix, 1 h pre-incubation
T2 construct: purchased Invitrogen PV3832
Method: This test uses active PTK2 enzyme (Invitrogen Code PV3832) and poly-Glu-Tyr (4:1, Sigma P-0275) as the kinase substrate. The kinase activity is detected by means of the phosphorylation of the substrate in a DELFIA™ assay. The phosphorylated substrate is detected with the Europium-labelled phosphotyrosine antibody PY20 (Perkin Elmer, No.: AD0038).
In order to determine concentration-activity curves with PTK2-inhibitors the compounds are serially diluted in 10% DMSO/H2O and 10 μL of each dilution are dispensed per well in a 96-well microtitre plate (clear U-shaped base plate, Greiner No. 650101) (the inhibitors are tested in duplicates) and mixed with 10 μL/well of PTK2 kinase (0.01 μg/well). PTK2 kinase is diluted accordingly beforehand with kinase dilution buffer (20 mM TRIS/HCl pH 7.5, 0.1 mM EDTA, 0.1 mM EGTA, 0.286 mM sodium orthovanadate, 10% glycerol with the addition of freshly prepared BSA (fraction V 1 mg/mL) and DTT (1 mM)). The test compound and the PTK2 kinase are pre-incubated for 1 h at RT and shaken at 500 rpm. Then 20 μL ATP Mix (30 mM TRIS/HCl pH 7.5, 0.02% Brij, 0.2 mM sodium orthovanadate, 10 mM magnesium acetate, 0.1 mM EGTA, 1× Phosphatase Inhibitor Cocktail 1 (Sigma, No.: P2850), 50 μM ATP (Sigma, No.: A3377; 15 mM stock solution)) are added. The reaction is started by the addition of 10 μL/well of poly (Glu,Tyr) substrate (25 μg/well poly (Glu,Tyr), 0.05 μg/well biotinylated poly (Glu,Tyr) dissolved in 250 mM TRIS/HCl pH 7.5, 9 mM DTT)—the final concentration of DMSO is 2%. After 1 h kinase reaction (the plates are shaken at 500 rpm), the reaction is stopped by the addition of 12 μL/well of 100 mM EDTA, pH 8. And shaken for a further 5 min at RT (500 U/min).
55 μL of the reaction mixture are transferred into a streptavidin plate (Strepta Well High Bind (transparent, 96-well) made by Roche, No.: 11989685001) and incubated for 1 h at RT (shaking at 500 rpm). Then the microtitre plate is washed three times with 200 μL/well D-PBS (Invitrogen, No.:14190). 100 μL of 1:2000 diluted DELFIA Eu-N1 Anti-Phosphotyrosine PY20 antibody (Perkin Elmer, No.: AD0038, 1:2000 diluted in DELFIA test buffer (Perkin Elmer, No.: 1244-111)) is then added and it is incubated for 1 h at RT (shaking at 500 rpm). Then the plate is washed three times with 200 μL/well DELFIA washing buffer (Perkin Elmer, No.: 1244-114), 200 μL/well strengthening solution (Perkin Elmer, No.: 1244-105) is added and the whole is incubated for 10 min at RT (shaking at 300 rpm).
The time-delayed europium fluorescence is then measured in a microtitre plate reader (Victor, Perkin Elmer). The positive control consists of wells that contain solvent (2% DMSO in test buffer) and display uninhibited kinase activity. Wells that contain test buffer instead of enzyme act as a control for the background kinase activity.
The IC50 values are determined from concentration-activity analyses by iterative calculation using a sigmoidal curve analysis algorithm (FIFTY, based on GraphPAD Prism Version 3.03) with a variable Hill coefficient.

T2 sequence (Q05397 whole entry): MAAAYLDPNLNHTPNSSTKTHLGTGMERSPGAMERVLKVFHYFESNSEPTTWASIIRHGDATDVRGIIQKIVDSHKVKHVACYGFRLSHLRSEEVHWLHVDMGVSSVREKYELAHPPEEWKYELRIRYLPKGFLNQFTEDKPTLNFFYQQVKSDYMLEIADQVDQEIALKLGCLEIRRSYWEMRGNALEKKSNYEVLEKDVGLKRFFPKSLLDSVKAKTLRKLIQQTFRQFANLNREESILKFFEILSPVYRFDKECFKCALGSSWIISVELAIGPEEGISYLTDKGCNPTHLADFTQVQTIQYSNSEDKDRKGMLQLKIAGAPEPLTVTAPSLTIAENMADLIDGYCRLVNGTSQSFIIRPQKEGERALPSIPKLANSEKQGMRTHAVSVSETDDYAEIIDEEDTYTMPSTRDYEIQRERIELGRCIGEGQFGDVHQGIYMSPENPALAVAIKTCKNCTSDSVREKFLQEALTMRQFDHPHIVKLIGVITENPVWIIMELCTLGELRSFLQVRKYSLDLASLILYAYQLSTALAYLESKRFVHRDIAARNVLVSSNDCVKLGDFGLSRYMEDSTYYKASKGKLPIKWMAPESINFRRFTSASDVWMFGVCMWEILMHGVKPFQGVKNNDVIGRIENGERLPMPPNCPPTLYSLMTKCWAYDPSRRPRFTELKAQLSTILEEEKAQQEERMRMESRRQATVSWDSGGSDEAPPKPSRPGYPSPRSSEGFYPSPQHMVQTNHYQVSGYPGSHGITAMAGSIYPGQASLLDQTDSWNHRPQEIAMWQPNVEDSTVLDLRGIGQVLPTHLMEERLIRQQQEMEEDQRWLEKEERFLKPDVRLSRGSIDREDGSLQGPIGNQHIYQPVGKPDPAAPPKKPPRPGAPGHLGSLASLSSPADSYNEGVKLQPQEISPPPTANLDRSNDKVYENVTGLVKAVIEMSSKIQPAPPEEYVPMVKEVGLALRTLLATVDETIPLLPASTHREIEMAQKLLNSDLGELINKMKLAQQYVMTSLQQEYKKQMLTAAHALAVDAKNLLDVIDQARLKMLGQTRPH
T1 sequence (Q05397 whole entry): as above

SMILES	EC50 [1] [nM]	IC50 [2] [nM]
COc1cc(C(N)=O)c(Br)cc1Nc1ncc(C(F)(F)F)c(NCc2ccc(C)cc2N(C)S(C)(=O)=O)n1 [Example 34]	0.31	3
COc1cc(C(=O)NC2CC(C)(C)N(C)C(C)(C)C2)ccc1Nc1ncc(C(F)(F)F)c(NCc2ccc(C)cc2N(C)S(C)(=O)=O)n1 [Example 11]	0.16	4
CCc1cc(C(=O)NOC)ccc1Nc1ncc(C(F)(F)F)c(NCc2ccc(C)cc2N(C)S(C)(=O)=O)n1 [Example 122]	3	2
CCc1cc(C(=O)NC2CCN(CC)CC2)ccc1Nc1ncc(C(F)(F)F)c(NCc2ccc(C)cc2N(C)S(C)(=O)=O)n1 [Example 101]	2	2
COc1cc(N2CCN(C(C)C)CC2)ccc1Nc1ncc(C(F)(F)F)c(NCc2ccc(F)cc2N(C)S(C)(=O)=O)n1 [Example 75]	0.84	1
COc1cc(C(=O)N[C@@H]2CCN(C)C[C@H]2F)c(F)cc1Nc1ncc(C(F)(F)F)c(NCc2ccc(C)cc2N(C)S(C)(=O)=O)n1 [Example 19]	0.2	3
CCOCCNC(=O)c1ccc(Nc2ncc(C(F)(F)F)c(NCc3ccc(C)cc3N(C)S(C)(=O)=O)n2)c(OC)c1 [Example 21]	0.22	5
COc1cc(CNC2CCOCC2)ccc1Nc1ncc(C(F)(F)F)c(NCc2ccc(C)cc2N(C)S(C)(=O)=O)n1 [Example 35]	0.31	3
COc1cc(CN(C)C)ccc1Nc1ncc(C(F)(F)F)c(NCc2ccc(C)cc2N(C)S(C)(=O)=O)n1 [Example 3]	0.11	1
COc1cc(C(=O)NC2CCN(C)CC2)ccc1Nc1ncc(C(F)(F)F)c(NCc2ccc(F)cc2N(C)S(C)(=O)=O)n1 [Example 52]	0.54	1
COC(=O)Nc1cc(OC)c(Nc2ncc(C(F)(F)F)c(NCc3ccc(C)cc3N(C)S(C)(=O)=O)n2)cc1C [Example 124]	3	5
COc1cc(C(=O)N[C@H]2CC[C@H](N3CCOCC3)CC2)ccc1Nc1ncc(C(F)(F)F)c(NCc2ccc(C)cc2N(C)S(C)(=O)=O)n1 [Example 76]	0.88	2
COc1cc(C(=O)N[C@H]2CN3CCC2CC3)ccc1Nc1ncc(C(F)(F)F)c(NCc2ccc(C)cc2N(C)S(C)(=O)=O)n1 [Example 28]	0.27	4
COc1cc(CNC2CCC2)ccc1Nc1ncc(C(F)(F)F)c(NCc2ccc(C)cc2N(C)S(C)(=O)=O)n1 [Example 61]	0.6	2
COc1cc(C(=O)NC2CCOC2)ccc1Nc1ncc(C(F)(F)F)c(NCc2ccc(C)cc2N(C)S(C)(=O)=O)n1 (stereo not drawn) [Example 64]	0.67	3
COc1cc(C(=O)NCC2CCCO2)ccc1Nc1ncc(C(F)(F)F)c(NCc2ccc(C)cc2N(C)S(C)(=O)=O)n1 (stereo not drawn) [Example 70]	0.74	4
COc1cc(C(=O)NC2CCNCC2)ccc1Nc1ncc(C(F)(F)F)c(NCc2ccc(C)cc2N(C)S(C)(=O)=O)n1 [Example 83]	1	2
COCCNC(=O)c1ccc(Nc2ncc(C(F)(F)F)c(NCc3ccc(C)cc3N(C)S(C)(=O)=O)n2)c(OC)c1 [Example 14]	0.17	4
CCc1cc(C(=O)NC)ccc1Nc1ncc(C(F)(F)F)c(NCc2ccc(C)cc2N(C)S(C)(=O)=O)n1 [Example 121]	3	2
COc1cc(C(=O)N[C@@H]2CCCN(C)C2)ccc1Nc1ncc(C(F)(F)F)c(NCc2ccc(C)cc2N(C)S(C)(=O)=O)n1 [Example 102]	2	2
COc1cc(CN(C)C)ccc1Nc1ncc(C(F)(F)F)c(NCc2ccc(F)cc2N(C)S(C)(=O)=O)n1 [Example 5]	0.12	0.86
COc1ccc(CNc2nc(Nc3cc(F)c(C(=O)N[C@H]4CCN(C)C4)cc3OC)ncc2C(F)(F)F)c(N(C)S(C)(=O)=O)c1 [Example 29]	0.29	2
Cc1ccc(CNc2nc(Nc3ccc(C(=O)N[C@H]4CC[C@H](N5CCN(CC6CC6)CC5)CC4)cc3F)ncc2C(F)(F)F)c(N(C)S(C)(=O)=O)c1 [Example 91]	2	3
COc1cc(C(=O)N[C@H]2CCN(C)C2)c(F)cc1Nc1ncc(C(F)(F)F)c(NCc2ccc(C)cc2N(C)S(C)(=O)=O)n1 [Example 23]	0.23	1
COc1cc(N2CCN(C3COC3)CC2)ccc1Nc1ncc(C(F)(F)F)c(NCc2ccc(F)cc2N(C)S(C)(=O)=O)n1 [Example 98]	2	3
COc1cc(C(=O)NC2CCC(N(C)C(C)C)CC2)ccc1Nc1ncc(C(F)(F)F)c(NCc2ccc(C)cc2N(C)S(C)(=O)=O)n1 (stereo not drawn) [Example 31]	0.29	1
COc1cc(N2CCN(C)CC2)ccc1Nc1ncc(C(F)(F)F)c(NCc2ccc(C)cc2N(C)S(C)(=O)=O)n1 [Example 79]	1	2
CCCNC(=O)c1ccc(Nc2ncc(C(F)(F)F)c(NCc3ccc(F)cc3N(C)S(C)(=O)=O)n2)c(OC)c1 [Example 115]	3	5
COc1cc(N2CCN(C3CCN(C)CC3)CC2)ccc1Nc1ncc(C(F)(F)F)c(NCc2ccc(C)cc2N(C)S(C)(=O)=O)n1 [Example 112]	3	2
COc1cc(C(=O)N[C@H]2CCCN(C3CCCC3)C2)ccc1Nc1ncc(C(F)(F)F)c(NCc2ccc(C)cc2N(C)S(C)(=O)=O)n1 [Example 47]	0.5	6
